Laboratory results reported in paper PMC8292346, “Dysfunction of the key ferroptosis-surveilling systems hypersensitizes mice to tubular necrosis during acute kidney injury” (Nature Communications, 2021).
“And” between values parts separate entries of the source, which are not always exact repeats. Identical values can stand only once.

Legend:
NIH3T3 cells [1] = assay: Ferroptosis inducers (FINs)/ferroptocide, 7-AAD/annexin V flow cytometry; format: cell-based, murine; details: alone (DMSO) or with Fer-1 1 µM, Nec-1s 30 µM, Nec-1f 30 µM
Method in brief: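 Cell death was assessed by flow cytometry with 7-AAD and annexin V. NIH3T3 cells grown in six-well plates or petri dishes were harvested, washed twice with PBS, and labeled for 15 min with 5 μl 7-AAD plus 5 μl annexin-V-FITC in 100 μl binding buffer. Samples were recorded on an LSRII (FACS Diva 6.1.1) and analyzed with FlowJo v10.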

[2] = test system: Mouse cortical tubule cells (MCT); assay: FINs/ferroptocide, 7-AAD/annexin V flow cytometry; format: cell-based; details: for double-negative events (7-AAD/annexin V): MCT, alone (DMSO) or with Fer-1 1 µM, Nec-1s 30 µM, Nec-1f 30 µM
Method in brief: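 This flow cytometry assay measured 7-AAD and annexin V staining. Harvested cell pellets were rinsed twice in PBS, and 5 μl annexin-V-FITC plus 5 μl 7-AAD (BD Biosciences) were added in 100 μl annexin-V binding buffer for 15 min. Samples were recorded on an LSRII with FACS Diva 6.1.1 software and analyzed using FlowJo v10.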

HT29 cells = assay: TSZ-induced necroptosis, 7-AAD/annexin V flow cytometry; format: cell-based, human; details: Nec-1f 10 µM
Method: To induce necroptosis in a human cell line, HT29 cells were stimulated at the indicated time points with 20 ng/ml human TNFα (Biolegend), 1 μM SMAC-mimetics (Birinapant, Chemietek), and 20 μM zVAD-fmk (Selleckchem, herein referred to as zVAD). For the induction of necroptosis in NIH3T3 cells, cells were incubated with 20 ng/ml TNF-α and 20 μM zVAD for indicated time points. […] Cells were seeded in six-well plates or petri dishes. […] After indicated time points, cells were collected and prepared for flow cytometry, immunoblotting, and/or LDH release assays.
Cells were harvested and the pellets were washed twice in PBS and stained with 5 μl of 7-AAD (BD Biosciences) and 5 μl of annexin-V-FITC (BD Biosciences) added to 100 μl annexin-V binding buffer (BD Biosciences). After 15 min, cells were recorded on the LSRII with the FACS Diva 6.1.1 software (BD Biosciences) and subsequently analyzed with the FlowJo v10 software (Tree Star).

C57Bl/6 N mice = assay: Bilateral kidney ischemia-reperfusion injury, severe model (38 min ischemia), survival; details: single dose 2 mg/kg body weight before reperfusion
β2(h) = β2(h) (Homo sapiens, UniProt P07550); assay: Off-target radioligand binding screen; details: read-out: β2(h) ($): inhibition of radioligand binding
[3] = test system: primary murine tubular cells; assay: RSL3-induced LDH release of primary kidney tubular cells; format: cell-based; details: RSL3 14 h
Method: The LDH release of cells or of freshly isolated kidney tubules was measured according to manufacturers’ instructions at indicated time points. In brief, an aliquot of the supernatant was taken and Lysis Solution was added for 45 min to induce maximal LDH release before another aliquot of the supernatant was taken. Subsequently, the supernatants were incubated with CytoTox 96® Reagent for 15 min protected from light at room temperature before adding Stop Solution. Absorbance was measured at 490 nm.
Generation, cell culture, and induction of cell death in primary murine tubular cells. Murine tubular cells were generated by outgrowth from isolated renal tubules (see above). Primary murine tubules were placed in six-well plates containing Dulbecco’s Modified Eagle Medium F-12 Nutrient Mixture without phenol red (DMEM/F12, Thermo Fisher), supplemented with 0.01 mg/ml recombinant human insulin, 5.5 μg/ml human transferrin, 0.005 μg/ml Na2SeO3 (ITS without linoleic acid, Sigma Aldrich), 50 nM hydrocortisone, 100 U/ml penicillin, and 100 μg/ml streptomycin (Pen/Strep, Thermo Fisher). After two days, the outgrown primary murine tubular cells were washed with PBS and a fresh medium was added. When the number of primary murine tubular cells reached approximately 50% confluence, the cells were removed from the six-well plates using Trypsin-EDTA (Thermo Fisher), washed with medium and a Ficoll Paque Plus (Sigma Aldrich) gradient was performed to remove any dead cells, and debris from the murine renal tubules. Cells were washed twice with PBS and seeded in six-well plates with medium. Once the number of grown cells reached approximately 50% confluence, they were washed with PBS and treated with type 2 FIN: RSL3 (also see Supplementary Table 2 for details). After 14 h, medium and cells were collected and prepared for LDH release assay. Images of the treated primary murine tubular cells were obtained using a 20×/0.30 PH1 objective on a Leica DMi1 microscope.

[4] = Inhibited co-autoxidation of egg phosphatidylcholine liposomes and STY-BODIPY (radical-trapping antioxidant activity)
Method: Inhibitors were then added (5 μl aliquots) at desired concentrations to the appropriate wells followed by vigorous mixing. […] Experiments were performed in triplicate using HPLC grade solvents and kinetic data is given as an average of three independent measurements. […]

α2A(h) = α2A(h) (Homo sapiens, UniProt P08913); assay: Off-target radioligand binding screen; details: read-out: α2A(h) ($): inhibition of radioligand binding
NIH3T3 cells [5] = assay: Ferroptosis inducers (FINs)/ferroptocide, 7-AAD/annexin V flow cytometry; format: cell-based, murine; details: individual replicates
AR(h) = assay: Off-target radioligand binding screen; details: Nec-1f 10 µM
HT1080 cells = assay: CellTiter-Glo luminescent cell viability assay (ATP), dose-response; format: cell-based, human
Method in brief: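 Ferroptosis inducers and/or inhibitors were added to HT1080 cells 24 h after plating. Viability was read as ATP luminescence after adding CellTiter-Glo reagent, shaking 2 min and incubating 10 min at room temperature.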

δ (DOP) (h) = δ (DOP) (h) (Homo sapiens, UniProt P41143); assay: Off-target radioligand binding screen; details: read-out: δ (DOP) (h) (#): inhibition of radioligand binding
5-HT transporter (h) = 5-HT transporter (h) (Homo sapiens, UniProt P31645); assay: Off-target radioligand binding screen; details: read-out: 5-HT transporter (h) ($): inhibition of radioligand binding
Chain of 5-HT transporter (h) (P31645 whole entry): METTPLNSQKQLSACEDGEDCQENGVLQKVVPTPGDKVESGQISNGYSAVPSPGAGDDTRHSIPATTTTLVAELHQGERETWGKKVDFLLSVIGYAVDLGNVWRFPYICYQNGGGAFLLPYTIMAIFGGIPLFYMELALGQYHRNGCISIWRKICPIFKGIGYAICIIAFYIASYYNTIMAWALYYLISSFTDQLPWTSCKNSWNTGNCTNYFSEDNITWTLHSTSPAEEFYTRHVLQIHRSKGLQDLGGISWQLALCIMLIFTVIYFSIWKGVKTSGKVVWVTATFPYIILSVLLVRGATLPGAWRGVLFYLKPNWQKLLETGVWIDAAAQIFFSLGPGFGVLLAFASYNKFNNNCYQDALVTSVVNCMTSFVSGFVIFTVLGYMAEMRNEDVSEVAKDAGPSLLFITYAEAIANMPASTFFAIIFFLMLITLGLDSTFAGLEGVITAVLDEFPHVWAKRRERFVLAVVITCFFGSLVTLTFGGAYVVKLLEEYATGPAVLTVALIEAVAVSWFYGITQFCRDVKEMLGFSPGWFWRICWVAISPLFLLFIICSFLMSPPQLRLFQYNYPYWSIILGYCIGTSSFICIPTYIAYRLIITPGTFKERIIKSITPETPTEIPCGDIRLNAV

Chain of δ (DOP) (h) (P41143 whole entry): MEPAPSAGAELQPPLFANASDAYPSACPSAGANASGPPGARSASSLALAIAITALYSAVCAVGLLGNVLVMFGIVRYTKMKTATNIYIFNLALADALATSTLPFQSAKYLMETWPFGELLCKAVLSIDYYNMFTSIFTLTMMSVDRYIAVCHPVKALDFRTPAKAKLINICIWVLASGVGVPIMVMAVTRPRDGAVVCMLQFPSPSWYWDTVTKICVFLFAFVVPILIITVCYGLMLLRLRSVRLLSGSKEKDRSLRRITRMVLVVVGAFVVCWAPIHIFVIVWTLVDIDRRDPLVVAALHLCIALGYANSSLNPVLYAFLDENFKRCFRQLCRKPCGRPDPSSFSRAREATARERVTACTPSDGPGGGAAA
Chain of α2A(h) (P08913 whole entry): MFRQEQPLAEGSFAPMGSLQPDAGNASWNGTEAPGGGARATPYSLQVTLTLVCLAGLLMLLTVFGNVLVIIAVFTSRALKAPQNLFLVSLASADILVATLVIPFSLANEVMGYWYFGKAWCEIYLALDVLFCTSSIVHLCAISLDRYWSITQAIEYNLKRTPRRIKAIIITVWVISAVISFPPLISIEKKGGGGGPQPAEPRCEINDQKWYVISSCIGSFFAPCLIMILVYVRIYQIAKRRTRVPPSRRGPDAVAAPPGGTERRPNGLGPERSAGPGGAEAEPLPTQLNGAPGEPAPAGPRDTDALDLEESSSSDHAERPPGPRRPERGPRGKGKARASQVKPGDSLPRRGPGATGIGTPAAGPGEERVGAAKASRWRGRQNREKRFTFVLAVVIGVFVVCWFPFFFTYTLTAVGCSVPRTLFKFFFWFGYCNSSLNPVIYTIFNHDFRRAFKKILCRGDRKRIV
Chain of β2(h) (P07550 whole entry): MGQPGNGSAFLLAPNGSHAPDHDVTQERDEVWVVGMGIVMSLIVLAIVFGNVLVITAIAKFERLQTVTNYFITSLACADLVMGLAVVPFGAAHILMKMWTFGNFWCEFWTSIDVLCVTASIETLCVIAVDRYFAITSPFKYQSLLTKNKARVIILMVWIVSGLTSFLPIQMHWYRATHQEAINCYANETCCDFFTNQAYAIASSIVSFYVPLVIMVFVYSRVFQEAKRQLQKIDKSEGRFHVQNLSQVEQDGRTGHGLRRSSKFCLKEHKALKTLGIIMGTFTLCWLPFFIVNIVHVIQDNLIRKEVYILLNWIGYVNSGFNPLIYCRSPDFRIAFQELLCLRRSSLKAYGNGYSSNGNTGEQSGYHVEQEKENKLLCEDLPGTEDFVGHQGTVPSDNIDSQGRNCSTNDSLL

Compound: CN1C(=O)C(Cc2c[nH]c3c(Cl)cccc23)NC1=S (stereo not drawn) [Nec-1f]
- double-negative events (7-AAD/annexin V) (NIH3T3 cells [1]; NIH3T3, 1.13 µM RSL3 6 h): 88.9% and 61.8% and 72.9% and 86.1% and 70.3% and 57.8% and 80.3%
- double-negative events (7-AAD/annexin V) (NIH3T3 cells [1]; NIH3T3, 10 µM FIN56 24 h): 88.1% and 87.8% and 92.6%
- Effect on FINO2-induced death ([2]; MCT cells): failed to prevent
- Effect on RSL3-induced annexin V / 7-AAD positivity ([2]; MCT cells): inhibited
- double-negative events (7-AAD/annexin V) ([2]; 1.13 µM RSL3 6 h): 93.7% and 87.8% and 51.4%
- double-negative events (7-AAD/annexin V) ([2]; 5 µM erastin 24 h): 79.8% and 85.4% and 81.9% and 88.8%
- double-negative events (7-AAD/annexin V) ([2]; 10 µM FIN56 24 h): 93.7% and 87.9% and 91.7%
- 7-AAD/annexin V flow cytometry, source data of bar graph Fig2e (HT29 cells; HT29, TSZ (TNFα 20 ng/ml, birinapant 1 µM, zVAD-fmk 20 µM) 16 h): 80.1% and 85.8% and 92.9% and 83.9% and 82.2% and 61.2% and 88.8% and 88.1%
- Protection against TSZ-induced necroptosis (7-AAD/annexin V, words) (HT29 cells; HT29, TSZ): maintained double negativity
- Survival after severe renal IRI vs vehicle (Kaplan-Meier, words) (C57Bl/6 N mice): significantly higher
- inhibition at 10 µM (β2(h)): 1.4%
- LDH release ([3]; primary kidney tubular cells, alone (DMSO) or with Fer-1 or Nec-1f 30 µM): 29.82% and 33.38% and 28.13%
- Effect on RSL3-induced LDH release ([3]; primary renal tubular cells): prevented
- RTA activity in co-autoxidation of egg phosphatidylcholine lipids in STY-BODIPY-embedded liposomes [4]: devoid of RTA activity
- ΔSTY-BODIPY ([4]; 2 µM Nec-1f, time 53820 s): -0.4045 µM
- ΔSTY-BODIPY ([4]; 2 µM Nec-1f, time 53880 s): -0.4072 µM
- ΔSTY-BODIPY ([4]; 2 µM Nec-1f, time 53940 s): -0.4054 µM
- ΔSTY-BODIPY ([4]; 2 µM Nec-1f, time 54000 s): -0.4034 µM
- ΔSTY-BODIPY ([4]; 10 µM Nec-1f, time 53820 s): -0.5158 µM
- ΔSTY-BODIPY ([4]; 10 µM Nec-1f, time 53880 s): -0.5141 µM
- ΔSTY-BODIPY ([4]; 10 µM Nec-1f, time 53940 s): -0.5142 µM
- ΔSTY-BODIPY ([4]; 10 µM Nec-1f, time 54000 s): -0.5122 µM
- inhibition at 10 µM (α2A(h)): -2%
- cells in 7-AAD/annexin V flow cytometry (FigS9b) (NIH3T3 cells [5]; Erastin-induced ferroptosis): 83.1% and 77.0% and 78.0% and 47.0%
- cells in 7-AAD/annexin V flow cytometry (FigS9b) (NIH3T3 cells [5]; FIN56-induced ferroptosis): 88.0% and 64.0%
- cells in 7-AAD/annexin V flow cytometry (FigS9b) (NIH3T3 cells [5]; FINO2-induced ferroptosis): 75.0% and 57.0%
- cells in 7-AAD/annexin V flow cytometry (FigS9b) (NIH3T3 cells [5]; Ferroptocide-induced cell death): 80.0% and 8.0%
- cells in 7-AAD/annexin V flow cytometry (FigS9b) (NIH3T3 cells [5]; RSL3-induced ferroptosis): 80.0% and 84.0%
- AR(h) (#): inhibition of radioligand binding (AR(h)): 12.2%
- ATP luminescence (CellTiterGlo) (HT1080 cells; HT1080 + Erastin, inhibitor concentration 0.01 (unit not given)): 6.81%
- ATP luminescence (CellTiterGlo) (HT1080 cells; HT1080 + Erastin, inhibitor concentration 0.1 (unit not given)): 7.52%
- ATP luminescence (CellTiterGlo) (HT1080 cells; HT1080 + Erastin, inhibitor concentration 1 (unit not given)): 8.325%
- ATP luminescence (CellTiterGlo) (HT1080 cells; HT1080 + Erastin, inhibitor concentration 10 (unit not given)): 21.5066%
- ATP luminescence (CellTiterGlo) (HT1080 cells; HT1080 + Erastin, inhibitor concentration 30 (unit not given)): 111.285%
- ATP luminescence (CellTiterGlo) (HT1080 cells; HT1080 + Ferroptocide, inhibitor concentration 0.01 (unit not given)): 1.591% and 1.035%
- ATP luminescence (CellTiterGlo) (HT1080 cells; HT1080 + Ferroptocide, inhibitor concentration 0.1 (unit not given)): 1.25% and 2.131%
- ATP luminescence (CellTiterGlo) (HT1080 cells; HT1080 + Ferroptocide, inhibitor concentration 1 (unit not given)): 5.941% and 7.943%
- ATP luminescence (CellTiterGlo) (HT1080 cells; HT1080 + Ferroptocide, inhibitor concentration 10 (unit not given)): 11.997% and 7.702%
- ATP luminescence (CellTiterGlo) (HT1080 cells; HT1080 + RSL3, inhibitor concentration 0.01 (unit not given)): 48.1449% and 58.3128%
- ATP luminescence (CellTiterGlo) (HT1080 cells; HT1080 + RSL3, inhibitor concentration 0.1 (unit not given)): 48.8384% and 72.7198%
- ATP luminescence (CellTiterGlo) (HT1080 cells; HT1080 + RSL3, inhibitor concentration 1 (unit not given)): 51.482% and 85.4435%
- ATP luminescence (CellTiterGlo) (HT1080 cells; HT1080 + RSL3, inhibitor concentration 10 (unit not given)): 49.7032% and 98.9558%
- ATP luminescence (CellTiterGlo) (HT1080 cells; HT1080 + RSL3, inhibitor concentration 30 (unit not given)): 46.9784% and 93.7693%
- inhibition at 10 µM (δ (DOP) (h)): 2.8%
- inhibition at 10 µM (5-HT transporter (h)): -5.9%
